Laboratory results from US7858630B2, “D3 and 5-HT2A receptor modulators” (Hoffmann-La Roche Inc., priority 2008, dated 2010).

Tests used:
[1] = molecular target: T1, human dopamine D2 receptor (Homo sapiens, UniProt P14416); assay: Radioligand binding ([3H]-spiperone) to membranes of HEK-293 EBNA cells expressing human D2 receptor; conditions: human D2, 0.7 nM [3H]-spiperone, HEK-293 EBNA membranes, 1 h at RT
T1 construct: expressed in transfected cells; host or cells: HEK-293 EBNA cells, transient transfection; membrane preparation
T1 sequence (P14416 whole entry): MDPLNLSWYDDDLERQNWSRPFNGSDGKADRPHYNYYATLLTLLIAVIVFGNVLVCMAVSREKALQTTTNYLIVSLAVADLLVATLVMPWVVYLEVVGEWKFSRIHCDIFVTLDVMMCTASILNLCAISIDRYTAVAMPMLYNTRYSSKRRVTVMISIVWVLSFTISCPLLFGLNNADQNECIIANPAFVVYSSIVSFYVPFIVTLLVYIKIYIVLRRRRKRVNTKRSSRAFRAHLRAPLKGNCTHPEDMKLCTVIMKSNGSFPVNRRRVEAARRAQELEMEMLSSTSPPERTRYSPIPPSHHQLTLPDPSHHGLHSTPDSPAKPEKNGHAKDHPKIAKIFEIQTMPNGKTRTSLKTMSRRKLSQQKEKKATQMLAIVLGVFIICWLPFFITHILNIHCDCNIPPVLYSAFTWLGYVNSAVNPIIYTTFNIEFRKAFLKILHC
Method: (§1) The ability of the compounds to bind to the 5-HT2A, D3 and D2 receptors was determined using radioligand binding to cloned receptors selectively expressed in HEK-293 EBNA cells.
(§2) Membrane Preparation for Human D2, Human D3 and Human 5-HT2A Receptors
(§3) HEK-293 EBNA cells were transiently transfected with expression plasmids encoding for the human D2 or D3 dopamine- or for the human 5-HT2A serotonin receptor, respectively. The cells were harvested 48 h post-transfection, washed three times with cold PBS and stored at −80° C. prior to use. The pellet was suspended in cold 50 mM Tris-HCl buffer containing 10 mM EDTA (pH 7.4) and homogenized with a Polytron (Kinematica AG, Basel, Switzerland) for 20-30 sec at 12.000 rpm. After centrifugation at 48.000×g for 30 min at 4° C., the pellet was resuspended in cold 10 mM Tris-HCl buffer containing 0.1 mM EDTA (pH 7.4), homogenized, and centrifuged as above. This pellet was further resuspended in a smaller volume of ice cold 10 mM Tris-HCl buffer containing 0.1 mM EDTA (pH 7.4) and homogenized with a Polytron for 20-30 sec at 12.000 rpm. The protein content of this homogenate was determined with the Bio-Rad (Bradford) Protein Assay (Biorad Laboratories GmbH, München, Germany) according to the instructions of the manufacturer using gamma globulin as the standard. This homogenate was stored at −80° C. in aliquots and thawed immediately prior to use.
(§4) Radioligand Binding Assay Conditions
(§5) Aliquots of membrane preparations were thawed at RT, resupended in assay buffer (D2, D3: 50 mM Tris-HCl, 120 mM NaCl, 5 mM MgCl2, 1 mM EDTA, 5 mM KCl, 1.5 mM CaCl2, pH=7.4; 5-HT2A: 50 mM Tris-HCl, 10 mM MgCl2, 1 mM EGTA, pH=7.4), homogenized with a Polytron for 20-30 sec at 12.000 rpm and adjusted to a final concentration of approximately 7.5 μg protein/well (D2, D3) and 15 μg protein/well (5-HT2A), respectively.
(§6) The binding affinity (Ki) of the compounds was determined using radioligand binding. Membranes were incubated in a total volume of 200 μl with a fixed concentration of radioligand (final concentration approximately 0.7 nM [^3H]-spiperone for D2, 0.5 nM [^3H]-spiperone for D3, and 1.1 nM [^3H]-ketanserin for 5-HT2A) and ten concentrations of test compound in ranging between 10 μM-0.1 nM for 1 h at RT. At the end of the incubation, the reaction mixtures were filtered on to unifilter 96-well white microplates with bonded GF/C filters (Packard BioScience, Zurich, Switzerland; preincubated for 1 h in 0.1% polyethylenimine (PEI) in assay buffer) with a Filtermate 196 harvester (Packard BioScience) and washed 3 times with cold assay buffer. The nonspecific binding was determined with equally composed reaction mixtures in the presence of 10 μM unlabelled spiperone. Per well 45 μl of Microscint 40 (Perkin Elmer, Schwerzenbach, Switzerland) was added, plates for sealed, shaken for 20 min and counted for 3 min on a Topcount Microplate Scintillation Counter (Canberra Packard SA, Zurich, Switzerland) with quenching correction.
(§7) The CPM value for each duplicate of a concentration of competing compound was averaged (y1), then the % specific binding was calculated according to the equation (((y1−non-specific)/(total binding-non-specific))×100). Graphs were plotted with the % specific binding using XLfit, a curve fitting program that iteratively plots the data using Levenburg Marquardt algorithm. The single site competition analysis equation used was y=A+((B−A)/(1+((x/C)^D))), where y is the % specific binding, A is the minimum y, B is the maximum y, C is the IC50, x is the log10 of the concentration of the competing compound and D is the slope of the curve (the Hill Coefficient). From these curves the IC50 (inhibition concentration at which 50% specific binding of the radioligand was displaced) and Hill coefficient were determined. […]

[2] = molecular target: T2, human dopamine D3 receptor (Homo sapiens, UniProt P35462); assay: Radioligand binding ([3H]-spiperone) to membranes of HEK-293 EBNA cells expressing human D3 receptor; conditions: human D3, 0.5 nM [3H]-spiperone, HEK-293 EBNA membranes, 1 h at RT
T2 construct: expressed in transfected cells; host or cells: HEK-293 EBNA cells, transient transfection; membrane preparation
T2 sequence (P35462 whole entry): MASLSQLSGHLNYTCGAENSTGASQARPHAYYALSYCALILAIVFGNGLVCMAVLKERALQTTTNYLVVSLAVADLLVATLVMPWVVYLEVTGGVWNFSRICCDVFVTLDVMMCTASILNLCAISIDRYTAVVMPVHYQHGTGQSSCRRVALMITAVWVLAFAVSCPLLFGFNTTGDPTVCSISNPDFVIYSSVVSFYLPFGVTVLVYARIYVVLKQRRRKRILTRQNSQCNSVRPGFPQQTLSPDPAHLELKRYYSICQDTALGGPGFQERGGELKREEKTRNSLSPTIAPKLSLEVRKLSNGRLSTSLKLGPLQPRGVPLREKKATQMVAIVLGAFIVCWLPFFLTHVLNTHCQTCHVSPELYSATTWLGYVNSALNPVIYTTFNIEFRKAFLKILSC
Method: as §1, §2, §3, §4, §5, §6, §7

[3] = molecular target: T3, human serotonin 5-HT2A receptor (Homo sapiens, UniProt P28223); assay: Radioligand binding ([3H]-ketanserin) to membranes of HEK-293 EBNA cells expressing human 5-HT2A receptor; conditions: 1.1 nM [3H]-ketanserin, HEK-293 EBNA membranes, 1 h at RT
T3 construct: expressed in transfected cells; host or cells: HEK-293 EBNA cells, transient transfection; membrane preparation
T3 sequence (P28223 whole entry): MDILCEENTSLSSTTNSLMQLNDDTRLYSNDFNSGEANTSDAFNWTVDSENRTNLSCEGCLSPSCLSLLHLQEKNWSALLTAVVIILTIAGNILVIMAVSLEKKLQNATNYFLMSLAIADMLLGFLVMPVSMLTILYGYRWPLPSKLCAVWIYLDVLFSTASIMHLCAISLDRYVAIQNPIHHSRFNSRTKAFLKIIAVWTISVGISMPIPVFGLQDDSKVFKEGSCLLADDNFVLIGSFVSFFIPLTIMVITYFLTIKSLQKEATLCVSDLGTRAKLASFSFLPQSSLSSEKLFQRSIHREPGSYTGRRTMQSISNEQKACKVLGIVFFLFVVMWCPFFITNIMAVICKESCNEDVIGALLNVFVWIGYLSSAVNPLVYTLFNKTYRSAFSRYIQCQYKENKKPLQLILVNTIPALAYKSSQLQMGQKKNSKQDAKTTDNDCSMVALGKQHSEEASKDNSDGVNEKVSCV
Method: as §1, §2, §3, §4, §5, §6, §7

Ki [1] [nM]	Ki [2] [nM]	Ki [3] [nM]	SMILES
3440	41.4	35.1	COC1CCC(C(=O)N[C@H]2CC[C@H](CCN3CCN(c4noc5ccc(F)cc45)CC3)CC2)CC1 (stereo partly drawn) [Example 13, 4-Methoxy-cyclohexanecarboxylic acid N-trans-(4-{2-[4-(5-fluoro-benzo[d]isoxazol-3-yl)-piperazin-1-yl]-ethyl}-cyclohexyl)-amide]
1070	3.37	28.1	CS(=O)(=O)N[C@H]1CC[C@H](CCN2CCN(c3noc4ccc(F)cc34)CC2)CC1 [Example 14, N-trans-(4-{2-[4-(5-Fluoro-benzo[d]isoxazol-3-yl)-piperazin-1-yl]-ethyl}-cyclohexyl)-methanesulfonamide]
752	6.34	15.4	O=C(CC1COCCO1)N[C@H]1CC[C@H](CCN2CCN(c3noc4ccc(F)cc34)CC2)CC1 (stereo partly drawn) [Example 15, 2-[1,4]Dioxan-2-yl-N-trans-(4-{2-[4-(5-fluoro-benzo[d]isoxazol-3-yl)-piperazin-1-yl]-ethyl}-cyclohexyl)-acetamide]
1440	21.4	14.4	COC1CCCC(C(=O)N[C@H]2CC[C@H](CCN3CCN(c4noc5ccc(F)cc45)CC3)CC2)C1 (stereo partly drawn) [Example 16, 3-Methoxy-cyclohexanecarboxylic acid N-trans-(4-{2-[4-(5-fluoro-benzo[d]isoxazol-3-yl)-piperazin-1-yl]-ethyl}-cyclohexyl)-amide]
592	1.83	25.4	NC(=O)CC(=O)N[C@H]1CC[C@H](CCN2CCN(c3noc4ccc(F)cc34)CC2)CC1 [Example 17, N-trans-(4-{2-[4-(5-Fluoro-benzo[d]isoxazol-3-yl)-piperazin-1-yl]-ethyl}-cyclohexyl)-malonamide]
386	5.55	19.3	O=C(C[C@H]1C[C@H](CO)C1)N[C@H]1CC[C@H](CCN2CCN(c3noc4ccc(F)cc34)CC2)CC1 [Example 20, N-trans-(4-{2-[4-(5-Fluoro-benzo[d]isoxazol-3-yl)-piperazin-1-yl]-ethyl}-cyclohexyl)-2-trans-(3-hydroxymethyl-cyclobutyl)-acetamide]
307	2.61	11.1	CC1(CC(=O)N[C@H]2CC[C@H](CCN3CCN(c4noc5ccc(F)cc45)CC3)CC2)COC1 [Example 21, N-trans-(4-{2-[4-(5-Fluoro-benzo[d]isoxazol-3-yl)-piperazin-1-yl]-ethyl}-cyclohexyl)-2-(3-methyl-oxetan-3-yl)-acetamide]
1030	7.81	32.7	CC1(C)C[C@@H](CC(=O)N[C@H]2CC[C@H](CCN3CCN(c4noc5ccc(F)cc45)CC3)CC2)CCO1 [Example 22, 2-((S)-2,2-Dimethyl-tetrahydro-pyran-4-yl)-N-(4-{2-[4-(5-fluoro-benzo[d]isoxazol-3-yl)-piperazin-1-yl]-ethyl}-cyclohexyl)-acetamide]
1060	7.03	26.8	CC1(C)C[C@H](CC(=O)N[C@H]2CC[C@H](CCN3CCN(c4noc5ccc(F)cc45)CC3)CC2)CCO1 [Example 23, 2-((R)-2,2-Dimethyl-tetrahydro-pyran-4-yl)-N-(4-{2-[4-(5-fluoro-benzo[d]isoxazol-3-yl)-piperazin-1-yl]-ethyl}-cyclohexyl)-acetamide]
1070	4.55	16.8	O=C(CC1OCCCO1)N[C@H]1CC[C@H](CCN2CCN(c3noc4ccc(F)cc34)CC2)CC1 [Example 24, 2-[1,3]Dioxan-2-yl-N-trans-(4-{2-[4-(5-fluoro-benzo[d]isoxazol-3-yl)-piperazin-1-yl]-ethyl}-cyclohexyl)-acetamide]
496	14.1	13.3	COC1CCN(CC(=O)N[C@H]2CC[C@H](CCN3CCN(c4noc5ccc(F)cc45)CC3)CC2)CC1 [Example 25, N-trans-(4-{2-[4-(5-Fluoro-benzo[d]isoxazol-3-yl)-piperazin-1-yl]-ethyl}-cyclohexyl)-2-(4-methoxy-piperidin-1-yl)-acetamide]
761	2.12	15.9	COC(CC(=O)N[C@H]1CC[C@H](CCN2CCN(c3noc4ccc(F)cc34)CC2)CC1)OC [Example 26, N-trans-(4-{2-[4-(5-Fluoro-benzo[d]isoxazol-3-yl)-piperazin-1-yl]-ethyl}-cyclohexyl)-3,3-dimethoxy-propionamide]
718	10	26.2	COC[C@H]1C[C@H](CC(=O)N[C@H]2CC[C@H](CCN3CCN(c4noc5ccc(F)cc45)CC3)CC2)C1 [Example 27, N-trans-(4-{2-[4-(5-Fluoro-benzo[d]isoxazol-3-yl)-piperazin-1-yl]-ethyl}-cyclohexyl)-2-trans-(3-methoxymethyl-cyclobutyl)-acetamide]
918	8.78	22.8	COC(CCC(=O)N[C@H]1CC[C@H](CCN2CCN(c3noc4ccc(F)cc34)CC2)CC1)OC [Example 28, N-trans-(4-{2-[4-(5-Fluoro-benzo[d]isoxazol-3-yl)-piperazin-1-yl]-ethyl}-cyclohexyl)-4,4-dimethoxy-butyramide]
490	8.68	8.59	COCCC(=O)N[C@H]1CC[C@H](CCN2CCN(c3noc4cc(Cl)ccc34)CC2)CC1 [Example 29, N-trans-(4-{2-[4-(6-Chloro-benzo[d]isoxazol-3-yl)-piperazin-1-yl]-ethyl}-cyclohexyl)-3-methoxy-propionamide]
675	9.18	8.65	CC(=O)N[C@H]1CC[C@H](CCN2CCN(c3noc4cc(Cl)ccc34)CC2)CC1 [Example 30, N-trans-(4-{2-[4-(6-Chloro-benzo[d]isoxazol-3-yl)-piperazin-1-yl]-ethyl}-cyclohexyl)-acetamide]
4990	8.89	2.9	CO[C@H]1CC[C@H](CC(=O)N[C@H]2CC[C@H](CCN3CCN(c4noc5cc(Cl)ccc45)CC3)CC2)CC1 [Example 31, N-trans-(4-{2-[4-(6-Chloro-benzo[d]isoxazol-3-yl)-piperazin-1-yl]-ethyl}-cyclohexyl)-2-trans-(4-methoxy-cyclohexyl)-acetamide]
3040	15.9	2.37	O=C(N[C@H]1CC[C@H](CCN2CCN(c3noc4cc(Cl)ccc34)CC2)CC1)C1CCOCC1 [Example 32, Tetrahydro-pyran-4-carboxylic acid N-trans-(4-{2-[4-(6-chloro-benzo[d]isoxazol-3-yl)-piperazin-1-yl]-ethyl}-cyclohexyl)-amide]
193	18.8	10.4	O=C(N[C@H]1CC[C@H](CCN2CCN(c3noc4cc(Cl)ccc34)CC2)CC1)C1CCOC1 (stereo partly drawn) [Example 34, Tetrahydro-furan-3-carboxylic acid N-trans-(4-{2-[4-(6-chloro-benzo[d]isoxazol-3-yl)-piperazin-1-yl]-ethyl}-cyclohexyl)-amide]
